From ChEMBL document CHEMBL6096658, “Discovery of Potent, Highly Selective, and Efficacious SMARCA2 Degraders” (J Med Chem, 2025)
Active and inactive are the calls of the source. No cut-off for these calls is given here.

What was measured:
[1] = biological target: T1, von Hippel-Lindau disease tumor suppressor/SWI/SNF-related matrix-associated actin-dependent regulator of chromatin subfamily A member 2 (Homo sapiens, UniProt P51531+P40337); test: PROTAC activity at VHL/SMARCA2 in human HT-1080 cells assessed as induction of SMARCA2 degradation by measuring maximum efficacy incubated for 6 hrs by Nano-Glo HiBiT Lytic Detection Assay relative to control; type: cell-based
Target sequence in this assay (P40337 whole entry, looked up): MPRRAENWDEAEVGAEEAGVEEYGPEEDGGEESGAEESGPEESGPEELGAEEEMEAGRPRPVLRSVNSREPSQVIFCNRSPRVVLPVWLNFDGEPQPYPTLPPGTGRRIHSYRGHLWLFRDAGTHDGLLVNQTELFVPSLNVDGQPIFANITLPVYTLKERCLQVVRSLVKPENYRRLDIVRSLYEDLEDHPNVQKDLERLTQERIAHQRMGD
Target sequence in this assay (P51531 whole entry, looked up): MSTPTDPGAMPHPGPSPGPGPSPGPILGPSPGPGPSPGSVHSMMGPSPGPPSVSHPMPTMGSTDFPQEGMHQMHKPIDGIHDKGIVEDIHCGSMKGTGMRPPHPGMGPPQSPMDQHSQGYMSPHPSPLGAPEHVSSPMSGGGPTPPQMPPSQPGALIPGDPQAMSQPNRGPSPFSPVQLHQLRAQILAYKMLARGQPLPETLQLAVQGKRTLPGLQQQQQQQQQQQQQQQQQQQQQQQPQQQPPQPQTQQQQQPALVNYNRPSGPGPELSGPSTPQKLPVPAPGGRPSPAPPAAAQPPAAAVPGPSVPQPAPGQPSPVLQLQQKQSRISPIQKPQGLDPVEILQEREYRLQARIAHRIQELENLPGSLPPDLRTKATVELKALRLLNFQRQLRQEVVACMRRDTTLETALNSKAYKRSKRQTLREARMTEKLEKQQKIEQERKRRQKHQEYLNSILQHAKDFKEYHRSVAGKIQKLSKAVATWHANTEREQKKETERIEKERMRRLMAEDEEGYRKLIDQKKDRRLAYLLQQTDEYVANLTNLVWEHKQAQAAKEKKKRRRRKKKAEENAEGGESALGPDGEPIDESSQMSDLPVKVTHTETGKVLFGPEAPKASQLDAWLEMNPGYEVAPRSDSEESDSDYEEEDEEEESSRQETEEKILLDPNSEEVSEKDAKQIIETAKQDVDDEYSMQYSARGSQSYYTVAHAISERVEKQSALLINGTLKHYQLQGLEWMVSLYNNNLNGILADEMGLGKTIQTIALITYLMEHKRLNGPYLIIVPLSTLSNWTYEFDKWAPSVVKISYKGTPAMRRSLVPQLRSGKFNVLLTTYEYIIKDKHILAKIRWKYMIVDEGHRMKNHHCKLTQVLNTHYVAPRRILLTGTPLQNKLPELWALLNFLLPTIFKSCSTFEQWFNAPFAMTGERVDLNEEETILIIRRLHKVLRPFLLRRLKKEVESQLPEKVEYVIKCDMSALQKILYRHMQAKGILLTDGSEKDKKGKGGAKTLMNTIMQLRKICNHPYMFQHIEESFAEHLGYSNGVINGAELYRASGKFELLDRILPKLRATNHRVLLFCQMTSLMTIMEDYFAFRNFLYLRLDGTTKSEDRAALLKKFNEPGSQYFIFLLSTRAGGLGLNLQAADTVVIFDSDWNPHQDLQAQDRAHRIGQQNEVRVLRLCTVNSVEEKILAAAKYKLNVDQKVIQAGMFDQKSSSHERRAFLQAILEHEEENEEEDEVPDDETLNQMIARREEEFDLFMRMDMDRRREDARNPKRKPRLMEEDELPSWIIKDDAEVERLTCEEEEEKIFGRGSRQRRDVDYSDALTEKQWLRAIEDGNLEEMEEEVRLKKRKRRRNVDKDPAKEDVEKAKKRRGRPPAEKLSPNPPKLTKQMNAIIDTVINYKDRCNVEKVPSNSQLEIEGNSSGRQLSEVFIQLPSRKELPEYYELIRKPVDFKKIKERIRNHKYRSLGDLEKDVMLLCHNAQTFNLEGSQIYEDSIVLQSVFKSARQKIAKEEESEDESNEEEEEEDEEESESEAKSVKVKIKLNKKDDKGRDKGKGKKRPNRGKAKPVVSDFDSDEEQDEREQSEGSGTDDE

[2] = biological target: von Hippel-Lindau disease tumor suppressor (Homo sapiens, UniProt P40337); test: Binding affinity to VHL (unknown origin) incubated for 30 mins by HTRF assay
[3] = test system: NCI-H1373; test: Antiproliferative activity against human NCI-H1373 cells assessed as inhibition of cell proliferation incubated for 6 days by Cell Titer Glo assay; type: functional, cell-based; conditions: time 6.0 day
[4] = test system: NCI-H838; test: Antiproliferative activity against human NCI-H838 cells assessed as inhibition of cell proliferation incubated for 6 days by Cell Titer Glo assay; type: functional, cell-based; conditions: time 6.0 day
[5] = biological target: T2, von Hippel-Lindau disease tumor suppressor/SWI/SNF-related matrix-associated actin-dependent regulator of chromatin subfamily A member 4 (Homo sapiens, UniProt P51532+P40337); test: PROTAC activity at VHL/SMARCA4 in human HT-1080 cells assessed as induction of SMARCA4 degradation by measuring maximum efficacy incubated for 6 hrs by Nano-Glo HiBiT Lytic Detection Assay relative to control; type: cell-based
Target sequence in this assay (P40337 whole entry, looked up): as the sequence (P40337 whole entry, looked up) above
Target sequence in this assay (P51532 whole entry, looked up): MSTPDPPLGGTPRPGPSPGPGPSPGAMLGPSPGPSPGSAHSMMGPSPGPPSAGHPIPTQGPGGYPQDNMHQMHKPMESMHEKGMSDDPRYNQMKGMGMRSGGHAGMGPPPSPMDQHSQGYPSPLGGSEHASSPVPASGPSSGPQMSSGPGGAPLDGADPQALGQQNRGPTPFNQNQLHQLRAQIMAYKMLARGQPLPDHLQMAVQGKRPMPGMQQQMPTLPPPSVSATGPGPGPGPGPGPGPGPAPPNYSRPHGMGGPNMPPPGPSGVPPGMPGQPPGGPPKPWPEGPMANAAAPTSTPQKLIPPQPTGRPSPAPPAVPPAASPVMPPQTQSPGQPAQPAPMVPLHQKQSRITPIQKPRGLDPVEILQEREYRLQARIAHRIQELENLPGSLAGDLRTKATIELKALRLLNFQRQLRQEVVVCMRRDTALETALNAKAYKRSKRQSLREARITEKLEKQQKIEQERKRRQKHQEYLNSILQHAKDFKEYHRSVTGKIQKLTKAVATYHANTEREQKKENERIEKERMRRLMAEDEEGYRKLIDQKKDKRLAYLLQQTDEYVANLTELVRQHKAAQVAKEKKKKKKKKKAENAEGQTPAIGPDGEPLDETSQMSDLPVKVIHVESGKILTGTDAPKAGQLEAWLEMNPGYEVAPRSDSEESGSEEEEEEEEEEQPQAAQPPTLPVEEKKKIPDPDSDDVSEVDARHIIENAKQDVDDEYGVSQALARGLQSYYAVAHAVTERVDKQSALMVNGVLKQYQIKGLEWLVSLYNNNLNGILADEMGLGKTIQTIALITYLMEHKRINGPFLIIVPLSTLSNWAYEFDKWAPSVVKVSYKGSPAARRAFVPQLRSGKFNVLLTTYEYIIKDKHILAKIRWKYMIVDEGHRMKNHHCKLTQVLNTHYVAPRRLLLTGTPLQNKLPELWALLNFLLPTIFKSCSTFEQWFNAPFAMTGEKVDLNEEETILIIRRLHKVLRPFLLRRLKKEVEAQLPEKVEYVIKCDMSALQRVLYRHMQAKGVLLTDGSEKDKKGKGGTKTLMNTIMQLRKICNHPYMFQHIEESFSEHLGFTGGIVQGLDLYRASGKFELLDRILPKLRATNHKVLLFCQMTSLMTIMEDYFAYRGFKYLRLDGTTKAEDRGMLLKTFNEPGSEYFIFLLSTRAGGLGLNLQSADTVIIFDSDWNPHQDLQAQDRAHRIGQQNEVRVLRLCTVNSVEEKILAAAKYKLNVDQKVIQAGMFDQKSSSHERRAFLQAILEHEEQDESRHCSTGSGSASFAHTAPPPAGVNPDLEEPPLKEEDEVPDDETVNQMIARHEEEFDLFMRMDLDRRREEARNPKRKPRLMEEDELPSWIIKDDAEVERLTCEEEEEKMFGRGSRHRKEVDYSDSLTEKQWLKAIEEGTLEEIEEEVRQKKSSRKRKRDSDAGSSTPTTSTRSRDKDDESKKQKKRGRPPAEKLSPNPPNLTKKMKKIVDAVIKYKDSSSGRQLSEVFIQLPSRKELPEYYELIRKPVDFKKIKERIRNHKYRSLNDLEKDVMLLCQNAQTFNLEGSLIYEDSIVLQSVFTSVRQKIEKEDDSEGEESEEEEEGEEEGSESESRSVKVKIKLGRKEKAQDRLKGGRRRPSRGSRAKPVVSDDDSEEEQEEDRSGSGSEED

[6] = biological target: T1, von Hippel-Lindau disease tumor suppressor/SWI/SNF-related matrix-associated actin-dependent regulator of chromatin subfamily A member 2; test: In vivo PROTAC activity at VHL/ SMARCA2 in female BALB/c mouse xenografted with human HT-1080 cells assessed as reduction in SMARCA2 level in tumor at 1 mg/kg, iv measured after 24 hrs relative to control; type: functional, organism-based; design: scale not given: the % may be the effect or the level left
Target sequence in this assay (P40337 whole entry, looked up): as the sequence (P40337 whole entry, looked up) above
Target sequence in this assay (P51531 whole entry, looked up): as the sequence (P51531 whole entry, looked up) above

[7] = test system: NCI-H1568; test: Antiproliferative activity against human NCI-H1568 cells assessed as inhibition of cell proliferation incubated for 6 days by Cell Titer Glo assay; type: functional, cell-based; conditions: time 6.0 day
[8] = test system: Calu-6; test: Antiproliferative activity against human Calu-6 cells assessed as cell growth inhibition incubated for 6 days by Cell Titer Glo assay; type: functional; conditions: Calu-6, 144 h, time 6 day
[9] = biological target: T1, von Hippel-Lindau disease tumor suppressor/SWI/SNF-related matrix-associated actin-dependent regulator of chromatin subfamily A member 2; test: In vivo PROTAC activity at VHL/ SMARCA2 in female BALB/c mouse xenografted with human HT-1080 cells assessed as reduction in SMARCA2 level in tumor at 10 mg/kg, iv measured after 24 hrs relative to control; type: functional, organism-based; design: scale not given: the % may be the effect or the level left
Target sequence in this assay (P40337 whole entry, looked up): as the sequence (P40337 whole entry, looked up) above
Target sequence in this assay (P51531 whole entry, looked up): as the sequence (P51531 whole entry, looked up) above

[10] = test system: Calu-6; test: Antiproliferative activity against human Calu-6 cells assessed as inhibition of cell proliferation incubated for 6 days by Cell Titer Glo assay; type: functional, cell-based; conditions: time 6.0 day
[11] = biological target: T2, von Hippel-Lindau disease tumor suppressor/SWI/SNF-related matrix-associated actin-dependent regulator of chromatin subfamily A member 4; test: In vivo PROTAC activity at VHL/ SMARCA4 in female BALB/c mouse xenografted with human HT-1080 cells at 1 mg/kg, iv measured after 24 hrs relative to control; type: functional, organism-based
Target sequence in this assay (P40337 whole entry, looked up): as the sequence (P40337 whole entry, looked up) above
Target sequence in this assay (P51532 whole entry, looked up): as the sequence (P51532 whole entry, looked up) above

[12] = biological target: T2, von Hippel-Lindau disease tumor suppressor/SWI/SNF-related matrix-associated actin-dependent regulator of chromatin subfamily A member 4; test: In vivo PROTAC activity at VHL/ SMARCA4 in female BALB/c mouse xenografted with human HT-1080 cells at 10 mg/kg, iv measured after 24 hrs relative to control; type: functional, organism-based
Target sequence in this assay (P40337 whole entry, looked up): as the sequence (P40337 whole entry, looked up) above
Target sequence in this assay (P51532 whole entry, looked up): as the sequence (P51532 whole entry, looked up) above

[13] = Metabolic stability in female BALB/c mouse microsomes assessed as half life administered intravenously; type: ADME; conditions: route iv
[14] = test system: NCI-H1573; test: Antiproliferative activity against human NCI-H1573 cells assessed as inhibition of cell proliferation incubated for 6 days by Cell Titer Glo assay; type: functional, cell-based; conditions: time 6.0 day
[15] = biological target: T1, von Hippel-Lindau disease tumor suppressor/SWI/SNF-related matrix-associated actin-dependent regulator of chromatin subfamily A member 2; test: PROTAC activity at VHL/SMARCA2 in human HT-1080 cells assessed as induction of SMARCA2 degradation incubated for 24 hrs by Nano-Glo HiBiT Lytic Detection Assay; type: cell-based
[16] = biological target: T2, von Hippel-Lindau disease tumor suppressor/SWI/SNF-related matrix-associated actin-dependent regulator of chromatin subfamily A member 4; test: PROTAC activity at VHL/SMARCA4 in human HT-1080 cells assessed as induction of SMARCA4 degradation incubated for 24 hrs by Nano-Glo HiBiT Lytic Detection Assay; type: cell-based
[17] = Selectivity ratio of DC50 for PROTAC activity at VHL/SMARCA4 in human HT-1080 cells (unknown origin) to DC50 for VHL/SMARCA2 in human HT-1080 cells (unknown origin); type: cell-based
[18] = test system: HT-1080; test: Antiproliferative activity against human HT-1080 cells assessed as inhibition of cell proliferation incubated for 6 days by Cell Titer Glo assay; type: functional, cell-based; conditions: time 6.0 day
[19] = test system: NCI-H838; test: Antiproliferative activity against human NCI-H838 cells assessed as cell growth inhibition incubated for 6 days by Cell Titer Glo assay; type: functional; conditions: NCI-H838, 144 h, time 6 day
[20] = test system: Calu-6; test: Antiproliferative activity against human Calu-6 cells assessed as inhibition of cell growth at 1 uM incubated for 6 days by Cell Titer Glo assay; type: functional; conditions: Calu-6, 144 h, time 6 day
[21] = biological target: T1, von Hippel-Lindau disease tumor suppressor/SWI/SNF-related matrix-associated actin-dependent regulator of chromatin subfamily A member 2; test: Binding affinity to flag-tagged SMARCA2/VHL (unknown origin) assessed as ternary complex formation by measuring HTRF signal incubated for 120 mins by Envision reader analysis; type: protein assay
Target sequence in this assay (P40337 whole entry, looked up): as the sequence (P40337 whole entry, looked up) above
Target sequence in this assay (P51531 whole entry, looked up): as the sequence (P51531 whole entry, looked up) above

[22] = biological target: SWI/SNF-related matrix-associated actin-dependent regulator of chromatin subfamily A member 4 (Homo sapiens, UniProt P51532); test: Binding affinity to SMARCA4 (unknown origin) incubated for 30 mins by HTRF assay
[23] = biological target: SWI/SNF-related matrix-associated actin-dependent regulator of chromatin subfamily A member 2 (Homo sapiens, UniProt P51531); test: Binding affinity to SMARCA2 (unknown origin) incubated for 30 mins by HTRF assay
[24] = test system: NCI-H1373; test: Antiproliferative activity against wild type human NCI-H1373 cells assessed as inhibition of cell proliferation incubated for 6 days by Cell Titer Glo assay; type: functional, cell-based; conditions: time 6.0 day
[25] = test system: HT-1080; test: Antiproliferative activity against wild type human HT-1080 cells assessed as inhibition of cell proliferation incubated for 6 days by Cell Titer Glo assay; type: functional, cell-based; conditions: time 6.0 day
[26] = biological target: T2, von Hippel-Lindau disease tumor suppressor/SWI/SNF-related matrix-associated actin-dependent regulator of chromatin subfamily A member 4; test: PROTAC activity at VHL/SMARCA4 in human HT-1080 cells assessed as induction of SMARCA4 degradation pretreated with MG132 followed by compound addition and measured after 6 hrs by Nano-Glo HiBiT Lytic Detection Assay; type: cell-based
Target sequence in this assay (P40337 whole entry, looked up): as the sequence (P40337 whole entry, looked up) above
Target sequence in this assay (P51532 whole entry, looked up): as the sequence (P51532 whole entry, looked up) above

[27] = biological target: T1, von Hippel-Lindau disease tumor suppressor/SWI/SNF-related matrix-associated actin-dependent regulator of chromatin subfamily A member 2; test: PROTAC activity at VHL/SMARCA2 in human HT-1080 cells assessed as induction of SMARCA2 degradation pretreated with MG132 followed by compound addition and measured after 6 hrs by Nano-Glo HiBiT Lytic Detection Assay; type: cell-based
Target sequence in this assay (P40337 whole entry, looked up): as the sequence (P40337 whole entry, looked up) above
Target sequence in this assay (P51531 whole entry, looked up): as the sequence (P51531 whole entry, looked up) above

[28] = biological target: T2, von Hippel-Lindau disease tumor suppressor/SWI/SNF-related matrix-associated actin-dependent regulator of chromatin subfamily A member 4; test: PROTAC activity at VHL/SMARCA4 in human HT-1080 cells assessed as induction of SMARCA4 degradation pretreated with MLN4924 followed by compound addition and measured after 6 hrs by Nano-Glo HiBiT Lytic Detection Assay; type: cell-based
Target sequence in this assay (P40337 whole entry, looked up): as the sequence (P40337 whole entry, looked up) above
Target sequence in this assay (P51532 whole entry, looked up): as the sequence (P51532 whole entry, looked up) above

[29] = biological target: T2, von Hippel-Lindau disease tumor suppressor/SWI/SNF-related matrix-associated actin-dependent regulator of chromatin subfamily A member 4; test: In vivo PROTAC activity at VHL/ SMARCA4 in female BALB/c mouse xenografted with human HT-1080 cells assessed as increase in SMARCA4 level administered intravenously and measured after 24 hrs; type: functional, organism-based; conditions: route iv
Target sequence in this assay (P40337 whole entry, looked up): as the sequence (P40337 whole entry, looked up) above
Target sequence in this assay (P51532 whole entry, looked up): as the sequence (P51532 whole entry, looked up) above

[30] = test system: Calu-6; test: Antiproliferative activity against wild type human Calu-6 cells assessed as inhibition of cell proliferation incubated for 6 days by Cell Titer Glo assay; type: functional, cell-based; conditions: time 6.0 day
[31] = biological target: T1, von Hippel-Lindau disease tumor suppressor/SWI/SNF-related matrix-associated actin-dependent regulator of chromatin subfamily A member 2; test: PROTAC activity at VHL/SMARCA2 in human HT-1080 cells assessed as induction of SMARCA2 degradation at 0.02 to 1000 nM by Nano-Glo HiBiT Lytic Detection Assay; type: cell-based; conditions: dose 0.02-1000 nM, time 6-24 hrs
Target sequence in this assay (P40337 whole entry, looked up): as the sequence (P40337 whole entry, looked up) above
Target sequence in this assay (P51531 whole entry, looked up): as the sequence (P51531 whole entry, looked up) above

[32] = biological target: T1, von Hippel-Lindau disease tumor suppressor/SWI/SNF-related matrix-associated actin-dependent regulator of chromatin subfamily A member 2; test: PROTAC activity at VHL/SMARCA2 in human HT-1080 cells assessed as induction of SMARCA2 degradation pretreated with MLN4924 followed by compound addition and measured after 6 hrs by Nano-Glo HiBiT Lytic Detection Assay; type: cell-based
[33] = biological target: T1, von Hippel-Lindau disease tumor suppressor/SWI/SNF-related matrix-associated actin-dependent regulator of chromatin subfamily A member 2; test: PROTAC activity at VHL/SMARCA2 in human HT-1080 cells assessed as induction of SMARCA2 degradation measured after 6 hrs by Nano-Glo HiBiT Lytic Detection Assay; type: cell-based; conditions: dose 0.02-1000 nM
[34] = Metabolic stability in female BALB/c mouse microsomes assessed as hepatic extraction ratio administered intravenously; type: ADME; conditions: route iv, read-out: ERH

Sequence of von Hippel-Lindau disease tumor suppressor (P40337 whole entry): as the sequence (P40337 whole entry, looked up) above

SMILES	Emax [1]	IC50 [2]	Activity [4]	Emax [5]	Activity [6]	Activity [7]	GI50 [8]	Activity [9]	half-life [13]	Activity [14]	DC50 [15]	DC50 [16]	Ratio [17]	GI50 [19]	further results
Cc1ncsc1-c1ccc([C@H](C)NC(=O)[C@@H]2C[C@@H](O)CN2C(=O)[C@H](C(C)C)n2cc([C@H]3CC[C@H](CN4CCC(c5ccc6c(c5)C(C)(C)c5nc(=O)c7c(Cl)cccc7n5-6)CC4)CC3)nn2)cc1	98%	2.1 nM	Active	97%	94%	Active	280 nM	> 95%	5 h	Active	0.22 nM	0.85 nM	4	3 nM	Activity [3]: Active; Activity [10]: Active; Activity [11]: 54%; Activity [12]: 93%; Activity [18]: Active
Cc1ncsc1-c1ccc([C@H](C)NC(=O)[C@@H]2C[C@@H](O)CN2C(=O)[C@@H](c2cc(N3CCC(CN4CCC(c5ccc6c(c5)-n5c(nc(=O)c7c(Cl)cccc75)C6(C)C)CC4)CC3)no2)C(C)C)cc1	97%	8.6 nM		69%			> 1000 nM				1.7 nM	63 nM	37	27 nM	inhibition at 1 µM [20]: < 15%; Activity [21]: Active; Smarca2-Vhl Shows 60% Greater Auc Compared To Smarca4-Vhl Was Observed; IC50 [22]: 63 nM; IC50 [23]: 30 nM
Cc1ncsc1-c1ccc([C@H](C)NC(=O)[C@@H]2C[C@@H](O)CN2C(=O)[C@@H](n2cc([C@H]3CC[C@H](CN4CCC(c5ccc6c(c5)-n5c(nc(=O)c7c(Cl)cccc75)C6(C)C)CC4)CC3)nn2)C(C)(C)C)cc1	97%	25 nM	Active	68%	83%	Active	> 1000 nM	> 95%	10 h	Active	1.3 nM	94 nM	72	34 nM	Activity [24]: Active; Less Activity Observed; Activity [25]: Active; Less Activity Observed; Activity [26]: inactive; Activity [27]: inactive; Activity [28]: inactive; Activity [29]: Active; Activity [30]: Active; Less Activity Observed; Activity [31]: Time-dependent-effect; Activity [32]: inactive; Activity [33]: Dose-dependent-effect
Cc1ncsc1-c1ccc([C@H](C)NC(=O)[C@@H]2C[C@@H](O)CN2C(=O)[C@@H](n2cc([C@H]3CC[C@H](CN4CCC(c5ccc6c(c5)C(C)(C)c5nc(=O)c7c(Cl)cccc7n5-6)CC4)CC3)nn2)C(C)(C)C)cc1	97%	1.5 nM		78%			> 1000 nM		1.5 h		0.28 nM	12 nM	43	32 nM	hepatic extraction ratio [34]: 0.44
